Where two headings read alike, the source gives them in different places.
Experiments:
[1] = test system: total HDAC activity in cultured neonatal mouse ventricular cardiomyocytes; test: Fluor de Lys total HDAC activity assay in cultured ventricular cardiomyocytes; type: cell-based; details: NMVMs, 18–24 h treatment; for C1, decay constant of first exponential component of HDAC inhibition curve / C2, decay constant of second exponential component of HDAC inhibition curve: double exponential fit
Protocol: Neonatal mice born from an inbred C57BL/6 mouse colony were anesthetized using isoflurane and the hearts were excised in accordance with procedures approved by the SUNY Upstate Medical University Institutional Animal Care and Use Committee (IACUC) # 263 on 15 March 2017. The excised hearts were separated into atria and ventricles and exposed to collagenase solution for digestion. The dissociated cells were pre-plated for 30 min to reduce fibroblast content by differential adhesion and the supernatant was collected, centrifuged and re-suspended in 1 mL/heart of M199/10% FBS culture media. The primary cells were plated into 96-well plates for HDAC activity assays, 35 mm culture dishes for patch clamp electrophysiology, or 60 mm culture dishes and homogenized after 3 days for Western blots.
Aliquots of 2 × 10^5 ventricular myocytes per well (96-well plate) were grown in 200 μL of 200 μM bromodeoxyuridine (BrDU)/M199, exchanged daily. Cell densities were counted with a hemocytometer and seeded into the wells. Wells were incubated with 2000 pmoles of the acetylated Fluor-de-Lys® substrate for 8 h during HDAC inhibition. […]

[2] = test system: ventricular gap junction conductance (gj), Cx43-mediated; test: Gap junction conductance (gj), dual whole cell patch clamp on NMVM cell pairs; type: cell-based, mouse
Protocol: Final DMSO levels were <0.005% (vol/vol).
Gap junction currents (Ij) were recorded in the dual whole cell configuration according to previously published methods. Upon establishing a dual whole cell patch, Ij was recorded using a 30 s, 20 mV trans-junctional voltage protocol. All dual whole cell current recordings were low-pass filtered at 500 Hz and digitized at 2 KHz using pClamp 8.2 and graphical analysis performed using Origin 7.5 or 8.6 software as previously described.

[3] = test system: cardiac sodium current (INa) in NMVMs, primarily NaV1.5; test: Cardiac sodium current (INa) density and Vm-dependent gNa activation/inactivation, whole cell patch clamp; type: cell-based, mouse; details: 18–24 h
Source text: Since both the activation and inactivation of INa are dependent on the membrane potential (Vm), we calculated the normalized Na^+ conductance (gNa) by dividing the average peak INa by the difference between Vm and the reversal potential (Erev) for INa, and then divided the gNa value for each Vm by the maximum gNa value for each experiment. The gNa–Vm curves were fit with a Boltzmann function gNa= gNamax+ (gNa− gNamax)/[1+exp((Vm− V1/2)/dVm)] using Origin 8.6. […] Final DMSO levels were <0.005% (vol/vol).

late INa in NMVMs = test: Late INa, whole cell patch clamp; type: cell-based, mouse
Source text: Increases in late or persistent INa have been linked to cardiac arrhythmias and heart failure. […] . Subsequently, we modified a voltage clamp ramp protocol designed to generate late INa I–V relationships. […] .

[4] = test system: Cx43 protein expression in NMVMs; test: Western blot of Cx43 protein level; type: cell-based, mouse; details: 24 h
[5] = test system: NaV1.5 protein expression in NMVMs; test: Western blot of NaV1.5 protein level; type: cell-based, mouse; details: 24 h
HDAC1 [6] = test system: HDAC1
[7] = test system: HeLa nuclear extract HDAC activity; design: method as in PMID 17455259; details: incomplete inhibition; cited from earlier work
HDAC8 [8] = test system: HDAC8; design: method as in PMID 17868033; details: >100,000 = incomplete inhibition at 100 μM; cited from earlier work
HDAC4 = test system: HDAC4; design: method as in PMID 17868033; details: >100,000 = incomplete inhibition at 100 μM; cited from earlier work
HDAC9 = test system: HDAC9; design: method as in PMID 17868033; details: >100,000 = incomplete inhibition at 100 μM; cited from earlier work
HDAC8 [9] = test system: HDAC8; design: method as in PMID 17455259; details: cited from earlier work
HDAC1 [10] = details: read-out: IC50 HDAC1, cited from earlier work
[11] = test system: acetyl-α-tubulin and acetyl-histone 3; test: Western blot of acetylation markers; details: 1 μM MS-275, 24 h
IK,to and IK,ss in NMVMs = test: Transient and steady state outward K+ currents, whole cell patch clamp
[12] = test system: total HDAC activity in cultured neonatal mouse ventricular cardiomyocytes; details: NMVMs, cited from earlier work; for C1, decay constant of first exponential component of HDAC inhibition curve / C2, decay constant of second exponential component of HDAC inhibition curve: double exponential fit
[13] = test system: cardiac sodium current (INa) in NMVMs, primarily NaV1.5; design: method as in PMID 27638876; details: previous experiments ref 13; cited from earlier work
HDAC6 = details: cited from earlier work
HDAC3 = test system: HDAC3; design: method as in PMID 17868033; details: >100,000 = incomplete inhibition at 100 μM; cited from earlier work
HDAC1 [14] = molecular target: HDAC1; design: method as in PMID 20139990; details: cited from earlier work
HDAC2 = molecular target: HDAC2; design: method as in PMID 20139990; details: cited from earlier work
HDAC5 = molecular target: HDAC5; design: method as in PMID 20139990; details: cited from earlier work
HDAC7 [15] = molecular target: HDAC7; design: method as in PMID 20139990; details: cited from earlier work
HDAC1 [16] = test system: HDAC1; design: method as in PMID 17868033; details: >100,000 = incomplete inhibition at 100 μM; cited from earlier work
HDAC7 [17] = test system: HDAC7; design: method as in PMID 17868033; details: >100,000 = incomplete inhibition at 100 μM; cited from earlier work
[18] = read-out: IC50(2), low affinity site, total HDAC activity, IC50 = 0.693·C2
[19] = adjusted values from published data ref 14
[20] = 25, 100, 500, 2500 nM panobinostat, p < 0.05
[21] = adjusted values from published data ref 13

In the case of `Nc1ccccc1NC(=O)c1ccc(CNC(=O)OCc2cccnc2)cc1` [Entinostat, entinostat], the “C1, decay constant of first exponential component of HDAC inhibition curve” value (“C1, decay constant … of HDAC inhibition curve” below) [1] is reported as 629 ± 166 nM, the “C2, decay constant of second exponential component of HDAC inhibition curve” value (shortened to “C2, decay constant … of HDAC inhibition curve”) [1] is reported as 12,926 ± 3655 nM and the IC50 ([1]; read-out: IC50(1), high affinity site, total HDAC activity, IC50 = 0.693·C1) is reported as 0.436 ± 0.115 µM. For the same compound, the IC50 [1, 18] was 8.96 ± 2.53 µM, the “effect on ventricular gj” value ([2]; 5 μM entinostat, 18–24 h) was “significant reduction in gj” and the “effect on peak Na+ current density” value ([3]; 1 μM entinostat) was “no significant effect”. The “effect on late INa current density” value (late INa in NMVMs; 1 μM entinostat 18–24 h, Vm ramp) was “no increase in late INa”, the Cx43 protein level ([4]; 1 μM entinostat) was “no significant changes” and the NaV1.5 protein level ([5]; 1 μM entinostat) was “no significant changes”. The “preferential inhibition of HDAC1 over other HDACs” value (HDAC1 [6]) was 10–100 fold, the IC50 [7] was 11 µM and the IC50 (HDAC8 [8]) was […]. For the same compound, the IC50 (HDAC4) was […], the IC50 (HDAC9) was […] and the IC50 (HDAC8 [9]) was […]. The IC50 (HDAC1 [10]) was […], the IC50 (HDAC1 [10]; text statement) was […] and the “Ac-H3 and Ac-α-tubulin signals” value [11] was “only increased the Ac-H3 signal”. The “transient outward and steady state K+ currents” value (IK,to and IK,ss in NMVMs; 1 μM MS275, 24 h) was “no si gni ficant chang es”.
In the case of `C/C=C1\NC(=O)[C@H]2CSSCC/C=C/[C@H](CC(=O)N[C@H](C(C)C)C(=O)N2)OC(=O)[C@H](C(C)C)NC1=O` [FK228, romidepsin], the “C1, decay constant … of HDAC inhibition curve” value [12, 19] is listed as 7.9 ± 0.9 nM, the “C2, decay constant … of HDAC inhibition curve” value [12, 19] is listed as 2524 ± 678 nM and the IC50 ([12]; adjusted values from published data ref 14, read-out: IC50(1), high affinity site, total HDAC activity) is listed as 0.0055 ± 0.0006 µM. For the same compound, the IC50 ([12]; adjusted values from published data ref 14, read-out: IC50(2), low affinity site, total HDAC activity) was 1.75 ± 0.47 µM, the “positive shift in half activation voltage (V½)” value [13] was “+2 to +8 mV” and the “shift in Vm-dependent gNa inactivation curve” value [13] was “no shift”.
In the case of `CCCC(=O)[O-].[Na+]` [NaB, sodium butyrate], the increase in gj ([2]; 5 mM NaB alone) is given as 26%, the effect on gj ([2]; increasing concentrations of NaB) is given as “non-significantly increased gj in a concentration-dependent manner” and the “activity against the class IIb HDAC6” value (HDAC6) is given as “no activity”.
In the case of `Cc1[nH]c2ccccc2c1CCNCc1ccc(/C=C/C(=O)NO)cc1` [Panobinostat, panobinostat], the “C1, decay constant … of HDAC inhibition curve” value [1] is reported as 57.4 ± 22.2 nM, the “C2, decay constant … of HDAC inhibition curve” value [1] is reported as 2959 ± 838 nM and the IC50 ([1]; IC50 = 0.693·C1, listed as LBH589, read-out: IC50(1), high affinity site, total HDAC activity) is reported as 0.0398 ± 0.0154 µM. For the same compound, the IC50 ([1]; IC50 = 0.693·C1, read-out: IC50(1), high affinity site, total HDAC activity) was roughly 0.04 µM, the IC50 [1, 18] was roughly 2 µM and the IC50 ([1]; read-out: IC50(2), low affinity site, total HDAC activity, IC50 = 0.693·C2, listed as LBH589) was 2.05 ± 0.581 µM. For the same compound, the “amplitude of exponential fit of decline in gj” value ([2]; 18–24 h, exponential fit) was 48.5, the “exponential decay constant of concentration-dependent decline in gj” value ([2]; 18–24 h, exponential fit) was […] and the “effect on ventricular gj” value ([2]; 100, 500 or 1000 nM panobinostat, 18–24 h) was “significant dose-dependent decrease”. The “effect on peak cardiac Na+ current density” value ([3]; 100 or 500 nM panobinostat) was “decreased the cardiac sodium current density in a dose-dependent manner”, the “effect on late INa” value (late INa in NMVMs; 100 or 500 nM panobinostat overnight, average current 100 to 150 msec) was “no difference in late INa” and the Cx43 protein level [4, 20] was “concentration-dependent decrease”. For the same compound, the NaV1.5 protein level [5, 20] was “concentration-dependent decrease”, the IC50 (HDAC3) was […] and the IC50 (HDAC8 [8]) was […]. For the same compound, the IC50 (HDAC6; >100,000 = incomplete inhibition at 100 μM) was […], the IC50 (HDAC4) was […] and the “transient outward and steady state K+ currents” value (IK,to and IK,ss in NMVMs; 100 nM, 24 h) was “No signifi cant changes”.
In the case of `CC(/C=C/C(=O)NO)=C\[C@@H](C)C(=O)c1ccc(N(C)C)cc1` [TSA, Trichostatin A], the “C1, decay constant … of HDAC inhibition curve” value [12, 21] is listed as 10.6 ± 1.3 nM, the “C2, decay constant … of HDAC inhibition curve” value [12, 21] is listed as 258 ± 76 nM and the IC50 ([12]; adjusted values from published data ref 13, read-out: IC50(1), high affinity site, total HDAC activity) is listed as 0.0073 ± 0.0009 µM. The IC50 ([12]; adjusted values from published data ref 13, read-out: IC50(2), low affinity site, total HDAC activity) was 0.179 ± 0.053 µM, the “positive shift in half activation voltage (V½)” value [13] was “+2 to +8 mV” and the “shift in Vm-dependent gNa inactivation curve” value [13] was “no shift”.
With `O=C(CCCCCCC(=O)Nc1ccc([C@H]2O[C@@H](CSc3nc(-c4ccccc4)c(-c4ccccc4)o3)C[C@@H](c3ccc(CO)cc3)O2)cc1)NO` [Tubacin, tubacin] the increase in gj ([2]; 10 μM tubacin alone) was 9%, the effect on gj ([2]; 20 μM tubacin, highest tested dose) was “slight decrease” and the effect on gj ([2]; increasing concentrations of tubacin) was “non-significant increase and then decrease in gj with increasing concentration”. For the same compound, the Ki (HDAC1 [14]) was 0.028 ± 0.004 µM, the Ki (HDAC2) was 0.042 ± 0.0035 µM and the Ki (HDAC5) was 1.5 ± 0.25 µM. For the same compound, the Ki (HDAC7 [15]) was 8.5 ± 1.5 µM.
For `O=C(CCCCCCC(=O)Nc1ccccc1)NO` [VOR, suberoylanilide hydroxamic acid], the “C1, decay constant … of HDAC inhibition curve” value [12, 21] is listed as 140 ± 30 nM and the “C2, decay constant … of HDAC inhibition curve” value [12, 21] is listed as 1086 ± 312 nM.
For `CCCC(CCC)C(=O)O` [VPA, valproic acid], the IC50 (HDAC1 [16]) is given as 1580 µM, the IC50 (HDAC3) is given as 3070 µM and the IC50 (HDAC8 [8]) is given as 7440 µM. The IC50 (HDAC7 [17]) was greater than 100 µM and the IC50 (HDAC9) was greater than 100 µM.
